Data: patent EP4806894A1, “TNAP INHIBITORY COMPOUND AND USE THEREOF” (Rednvia Co., Ltd., priority 2023, dated 2025)
Structures can show the parent of a compound that is named as a salt.

Experiments:
[1] = target: T1, TNAP (Homo sapiens, UniProt P05186); assay: TNAP inhibitory activity, colorimetric assay (alkaline phosphatase assay kit ab83369, pNPP substrate); format: biochemical; settings: TNAP enzyme, 2 hours at room temperature, absorbance 405 nm
T1 sequence (P05186 18-502 limits assumed): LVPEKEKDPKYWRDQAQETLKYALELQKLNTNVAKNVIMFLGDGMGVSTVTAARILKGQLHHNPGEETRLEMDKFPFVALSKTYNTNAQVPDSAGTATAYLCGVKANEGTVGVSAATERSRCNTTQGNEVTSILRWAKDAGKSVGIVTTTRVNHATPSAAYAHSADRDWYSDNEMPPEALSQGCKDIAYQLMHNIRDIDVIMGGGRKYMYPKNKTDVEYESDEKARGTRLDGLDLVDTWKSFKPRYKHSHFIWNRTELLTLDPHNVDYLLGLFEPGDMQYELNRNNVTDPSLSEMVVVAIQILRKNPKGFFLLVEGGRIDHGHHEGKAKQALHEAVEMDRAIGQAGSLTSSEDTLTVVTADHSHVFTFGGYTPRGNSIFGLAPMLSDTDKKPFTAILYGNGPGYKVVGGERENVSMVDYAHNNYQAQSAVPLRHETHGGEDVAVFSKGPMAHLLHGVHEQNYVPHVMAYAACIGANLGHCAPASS
Method: The TNAP inhibitory activity of the compounds according to the present invention was analyzed by colorimetric assay.
The experiments were performed according to the protocol of the alkaline phosphatase assay kit ab83369.
TNAP enzyme at a concentration of 0.2 ng/µl was dispensed into a 96-well plate (Costar) (10 µl/well), to which the 10-fold diluted test substance was added (15 µl/well). The plate was incubated at room temperature, shielded from light, for 10 minutes to allow the enzyme and compound to act. After incubation, 125 µl of 1 mM substrate (pNPP) was added to each well of the plate, and the plate was incubated for 2 hours at room temperature in a darkened state to allow the enzyme, substrate, and test compound to act. Absorbance was measured at 405 nm using a microplate reader (Tecan spark), and IC50 was calculated using GraphPad Prism 9. The amount of p-nitrophenol produced was calculated through the absorbance, and the degree of TNAP activity inhibition was evaluated through the degree of inhibition of p-nitrophenol production, and the concentration of the compound that inhibited 50% was calculated as the IC50 value.

[2] = tested on: saos-2 cells; assay: Anticalcification efficacy in saos-2 cells (osteogenic medium, Alizarin Red staining); format: cell-based; settings: Homo sapiens, 168 h, test compound 1 µM, 7 days osteogenic medium, Alizarin Red absorbance 540 nm, read-out: calcification inhibition
Method: To confirm the inhibitory effect of calcification in saos-2 cells in which calcification is induced by overexpression of TNAP, saos-2 cells were cultured in a culture medium in an incubator at 37°C, 95% humidity, and 5% CO2. RPMI-1640 (Corning) supplemented with 10% FBS (Gibco) and 1% Pen/Strep (Gibco) was used as the culture medium.
Saos-2 cells were seeded in a 48-well plate at the density of 1.5 x 10^4 cells/well and used in the experiment when they reached 80-90% confluence after stabilization for 2 days.
After saos-2 cells were cultured in a 48-well plate to 80-90% confluence, the culture medium was removed and replaced with an osteogenic medium (OM). DMEM (Gibco) containing 10% FBS, 1% Pen/Strep, 100 nM dexamethasone (Sigma), 10 mM β-glycerophosphate (Sigma), and 0.05 mM L-ascorbic acid (Sigma) was used as the OM. Osteogenic differentiation of saos-2 cells by OM was induced for 7 days, and OM was replaced every 2 to 3 days.
When inducing calcification through OM in saos-2 cells, the cells were treated with concentrations of […] of the TNAP inhibitor test compounds with the OM replacement cycle, except for the control group (OM).
After 7 days of OM induction, the medium was removed from each well and the plate was washed twice with PBS. Cells were fixed with 4% paraformaldehyde for 1 hour, then the fixative was removed and washed twice with deionized water (DW). ARS solution was added to the plate and shaken for 1 hour to stain the cells. When the cells were sufficiently stained red, the dye was removed, the cells were washed carefully with DW, dried, and then photographs were taken of the stained cells. The red-stained area represents calcification induced by OM, and the degree of calcification was determined based on the degree of redness. To quantify this, 10% cetylpyridinium chloride was dispensed into the wells and the dye was dissolved. The dye-dissolved solution was transferred to each well of a 96 well plate and absorbance was measured at 540 nm.
The degree of decrease in the measured absorbance by the test compounds based on the absorbance for OM was evaluated as the degree of inhibition of calcification.

SMILES | IC50 [1] | inhibition at 1 µM [2]
CCOC(=O)CCc1ccc(-c2ccc(OC)c(S(=O)(=O)Nc3cnc4c(c3)C(=O)NCC4)c2)cc1 [Example 49, ethyl 3-(4'-methoxy-3'-(N-(5-oxo-5,6,7,8-tetrahydro-1,6-naphthyridine-3-yl)sulfamoyl)-[1,1'-biphenyl]-4-yl)propanoate] | 10 to 100 nM | ≥ 50%
COc1ccc(-c2ccc(CCC(=O)O)cc2)cc1S(=O)(=O)Nc1cnc2c(c1)C(=O)NCC2 [Example 50, 3-(4'-methoxy-3'-(N-(5-oxo-5,6,7,8-tetrahydro-1,6-naphthyridine-3-yl)sulfamoyl)-[1,1'-biphenyl]-4-yl)propanoic acid] | 10 to 100 nM | ≥ 50%
COc1ccc(C2=CCOCC2)cc1S(=O)(=O)Nc1cnc2c(c1)C(=O)NCC2 [Example 51, 5-(3,6-dihydro-2H-pyran-4-yl)-2-methoxy-N-(5-oxo-5,6,7,8-tetrahydro-1,6-naphthyridine-3-yl)benzenesulfonamide] | 100 to 1000 nM | ≥ 50%
COc1ccc(C2=CCN(C(=O)OC(C)(C)C)CC2)cc1S(=O)(=O)Nc1cnc2c(c1)C(=O)NCC2 [Example 52, tert-butyl 4-(4-methoxy-3-(N-(5-oxo-5,6,7,8-tetrahydro-1,6-naphthyridine-3-yl)sulfamoyl)phenyl)-3,6-dihydropyridine-1(2H)-carboxylate] | 100 to 1000 nM | ≥ 50%
COc1ccc(C2=CCNCC2)cc1S(=O)(=O)Nc1cnc2c(c1)C(=O)NCC2 [Example 53, 2-methoxy-N-(5-oxo-5,6,7,8-tetrahydro-1,6-naphthyridine-3-yl)-5-(1,2,3,6-tetrahydropyridine-4-yl)benzenesulfonamide hydrochloride] | 100 to 1000 nM | 0 to 50%
COc1ccc(-c2cnn(C3CCCCO3)c2)cc1S(=O)(=O)Nc1cnc2c(c1)C(=O)NCC2 (stereo not drawn) [Example 54, 2-methoxy-N-(5-oxo-5,6,7,8-tetrahydro-1,6-naphthyridine-3-yl)-5-(1-(tetrahydro-2H-pyran-2-yl)-1H-pyrazole-4-yl)benzenesulfonamide] | 100 to 1000 nM | ≥ 50%
COc1ccc(-c2cn[nH]c2)cc1S(=O)(=O)Nc1cnc2c(c1)C(=O)NCC2 [Example 55, 2-methoxy-N-(5-oxo-5,6,7,8-tetrahydro-1,6-naphthyridine-3-yl)-5-(1H-pyrazole-4-yl)benzenesulfonamide] | 100 to 1000 nM | ≥ 50%
O=C1NCCc2ncc(NS(=O)(=O)c3cc(F)ccc3Br)cc21 [Example 56, 2-bromo-5-fluoro-N-(5-oxo-5,6,7,8-tetrahydro-1,6-naphthyridine-3-yl)benzenesulfonamide] | 100 to 1000 nM | ≥ 50%
COc1ccc(-c2cnn(C)c2)cc1S(=O)(=O)Nc1cnc2c(c1)C(=O)NCC2 [Example 57, 2-methoxy-5-(1-methyl-1H-pyrazole-4-yl)-N-(5-oxo-5,6,7,8-tetrahydro-1,6-naphthyridine-3-yl)benzenesulfonamide] | 100 to 1000 nM | ≥ 50%
COc1ccc(-c2cnn(C(C)(C)C(N)=O)c2)cc1S(=O)(=O)Nc1cnc2c(c1)C(=O)NCC2 [Example 58, 2-(4-(4-methoxy-3-(N-(5-oxo-5,6,7,8-tetrahydro-1,6-naphthyridine-3-yl)sulfamoyl)phenyl)-1H-pyrazole-1-yl)-2-methylpropanamide] | ≥ 1000 nM | 0 to 50%
CCOC(=O)C(C)(C)n1cc(-c2ccc(OC)c(S(=O)(=O)Nc3cnc4c(c3)C(=O)NCC4)c2)cn1 [Example 59, ethyl 2-(4-(4-methoxy-3-(N-(5-oxo-5,6,7,8-tetrahydro-1,6-naphthyridine-3-yl)sulfamoyl)phenyl)-1H-pyrazole-1-yl)-2-methylpropanoate] | 100 to 1000 nM | ≥ 50%
COc1ccc(-c2cnn(C(C)(C)C(=O)O)c2)cc1S(=O)(=O)Nc1cnc2c(c1)C(=O)NCC2 [Example 60, 2-(4-(4-methoxy-3-(N-(5-oxo-5,6,7,8-tetrahydro-1,6-naphthyridine-3-yl)sulfamoyl)phenyl)-1H-pyrazole-1-yl)-2-methylpropanoic acid] | 100 to 1000 nM | ≥ 50%
COc1ccc(C2=CCN(C(C)=O)CC2)cc1S(=O)(=O)Nc1cnc2c(c1)C(=O)NCC2 [Example 61, 5-(1-acetyl-1,2,3,6-tetrahydropyridine-4-yl)-2-methoxy-N-(5-oxo-5,6,7,8-tetrahydro-1,6-naphthyridine-3-yl)benzenesulfonamide] | 100 to 1000 nM | ≥ 50%
COc1ccc(C2=CCCOC2)cc1S(=O)(=O)Nc1cnc2c(c1)C(=O)NCC2 [Example 62, 5-(5,6-dihydro-2H-pyran-3-yl)-2-methoxy-N-(5-oxo-5,6,7,8-tetrahydro-1,6-naphthyridine-3-yl)benzenesulfonamide] | 10 to 100 nM | ≥ 50%
COc1ccc(C2=CCCCC2)cc1S(=O)(=O)Nc1cnc2c(c1)C(=O)NCC2 [Example 63, 4-methoxy-N-(5-oxo-5,6,7,8-tetrahydro-1,6-naphthyridine-3-yl)-2',3',4',5'-tetrahydro-[1,1'-biphenyl]-3-sulfonamide] | 100 to 1000 nM | < 0%
COc1ccc(C2=CCC(F)(F)CC2)cc1S(=O)(=O)Nc1cnc2c(c1)C(=O)NCC2 [Example 64, 4',4'-difluoro-4-methoxy-N-(5-oxo-5,6,7,8-tetrahydro-1,6-naphthyridine-3-yl)-2',3',4',5'-tetrahydro-[1,1'-biphenyl]-3-sulfonamide] | ≥ 1000 nM | < 0%
COc1ccc(-c2cnn(C3CCN(C)CC3)c2)cc1S(=O)(=O)Nc1cnc2c(c1)C(=O)NCC2 [Example 65, 2-methoxy-5-(1-(1-methylpiperidine-4-yl)-1H-pyrazole-4-yl)-N-(5-oxo-5,6,7,8-tetrahydro-1,6-naphthyridine-3-yl)benzenesulfonamide] | ≥ 1000 nM | < 0%
CCNC(=O)Cn1cc(-c2ccc(OC)c(S(=O)(=O)Nc3cnc4c(c3)C(=O)NCC4)c2)cn1 [Example 66, N-ethyl-2-(4-(4-methoxy-3-(N-(5-oxo-5,6,7,8-tetrahydro-1,6-naphthyridine-3-yl)sulfamoyl)phenyl)-1H-pyrazole-1-yl)acetamide] | ≥ 1000 nM | < 0%
CCNC(=O)CCc1ccc(-c2ccc(OC)c(S(=O)(=O)Nc3cnc4c(c3)C(=O)NCC4)c2)cc1 [Example 67, N-ethyl-3-(4'-methoxy-3'-(N-(5-oxo-5,6,7,8-tetrahydro-1,6-naphthyridine-3-yl)sulfamoyl)-[1,1'-biphenyl]-4-yl)propanamide] | 100 to 1000 nM | 0 to 50%
CCOC(=O)Cn1cc(-c2ccc(OC)c(S(=O)(=O)Nc3cnc4c(c3)C(=O)NCC4)c2)cn1 [Example 68, ethyl 2-(4-(4-methoxy-3-(N-(5-oxo-5,6,7,8-tetrahydro-1,6-naphthyridine-3-yl)sulfamoyl)phenyl)-1H-pyrazole-1-yl)acetate] | 10 to 100 nM | ≥ 50%
COc1ccc(-c2cnn(C(C)c3nc(C(C)C)no3)c2)cc1S(=O)(=O)Nc1cnc2c(c1)C(=O)NCC2 (stereo not drawn) [Example 69, 5-(1-(1-(3-isopropyl-1,2,4-oxadiazole-5-yl)ethyl)-1H-pyrazole-4-yl)-2-methoxy-N-(5-oxo-5,6,7,8-tetrahydro-1,6-naphthyridine-3-yl)benzenesulfonamide] | 100 to 1000 nM | < 0%
